The values that follow come from US9056119B2, “VEGF production promoter” (Kao Corporation, priority 2010, dated 2015).

This test relates to VEGF. Briefly: Effect on production of VEGF: amount of VEGF secreted in culture supernatant, determined by ELISA. As to conditions: normal human newborn preputial epidermal keratinocytes (NHEK), 16 hours, control defined as 1. Format: cell-based. As to the method: Normal human newborn preputial epidermal keratinocytes (Kurabo Industries Ltd.: frozen NHEK (F) Lot. No. 061130-902) were used in a test. The cells were inoculated into three six-well microplates at 2×10^4 cells/mL per well. Culture was carried out in Defined keratinocyte-SFM (SFM medium, Gibco) under conditions of 2% CO2 and 37° C. After the cell density reached 50 to 60% confluence, the medium was exchanged for additive-free Defined keratinocyte-SFM medium (SFM (−) medium). The cells were conditioned to the SFM (−) medium for 24 hours, and the medium was then exchanged for an SFM (−) medium supplemented with an arbitrary concentration of the triterpenoid saponin obtained in Example 1. Then, the test was started.
It should be noted that a compound-free SFM (−) medium was used as a negative control. 16 hours after the start of the test, the media were collected, and the amounts of VEGF secreted in the supernatants of the cultures were determined using an ELISA kit (R&D Systems). The amount of VEGF produced in the control was defined as 1, and relative values to the control value were used for evaluation.
A general note: An ELISA detects its analyte on a solid surface through an enzyme-linked reagent.

Consider `CC(=O)O[C@H]([C@H]1C[C@@H](C)[C@H]2[C@@](O)(O1)[C@H](O)[C@@]1(C)C3=CCC4C(C)(C)[C@@H](O[C@@H]5OC[C@@H](O)[C@@H](O)C5O)CC[C@@]45C[C@@]35CC[C@]21C)C(C)(C)O` (stereo partly drawn) [Compound 1, 7,8-Didehydro-24-O-acetylhydroshengmanol-3-O-β-xyloside], for which the “Relative value of secreted VEGF amount” value (20 μg/mL) worked out at 2.19, the “Relative value of secreted VEGF amount” value (100 μg/mL) worked out at 3.65 and the “Relative value of secreted VEGF amount” value (200 μg/mL) was found to be 5.69.

On to `C[C@@H]1C[C@H]2O[C@]3(O[C@H]2C(C)(C)O)[C@H]1[C@@]1(C)CC[C@@]24C[C@@]25CC[C@H](O[C@@H]2OC[C@@H](O)[C@@H](O)C2O)C(C)(C)C5CC=C4[C@]1(C)[C@H]3O` (stereo partly drawn) [Compound 2, 24-epi-7,8-Didehydrocimigenol-3-xyloside], for which the “Relative value of secreted VEGF amount” value by setting is: (20 μg/mL) 2.32; (100 μg/mL) 0.40.

In the case of `C[C@H](CC(=O)C1OC1(C)C)[C@H]1C(=O)C[C@@]2(C)C3=CCC4C(C)(C)[C@@H](O[C@@H]5OC[C@@H](O)[C@@H](O)C5O)CC[C@@]45C[C@@]35C(O)C[C@]12C` (some centres unmarked) [Compound 3, Cimicifugoside H-1], the “Relative value of secreted VEGF amount” value by setting is: (20 μg/mL) 1.19; (100 μg/mL) 2.50; (200 μg/mL) 2.82.
